# From patent US9011853B2, “B7-H4 fusion proteins and methods of use thereof” (Amplimmune, Inc., priority 2009, dated 2015)
# Values joined by “and” are separate entries in the source; they are usually repeats but may differ in a detail not shown here. Equal entries are not always repeated.
# Experiments:
# MRL/lpr mice = assay: MRL/lpr lupus mouse model, anti-dsDNA autoantibody ELISA; format: in vivo; conditions: individual MRL/lpr mouse, plasma diluted 1:2000
# Description: MRL/lpr mice at 4 weeks of age were used in this experiment. Animals were tagged with metal tags on their right ears for identification. […] In the proof-of-concept study, combination treatments with recombinant murine B7-H4-Ig and CTX were tested. Mice received single or combination treatment of murine B7-H4-Ig (Lot#DEV-110-5-006) at 5 mg/kg with or without CTX at 50 mg/kg via IP injection, once every 2 weeks (FIG. 59). Murine B7-H4-Ig dosing regimen at 5 mg/kg (100 μg/mouse/injection), twice a week, was chosen based on in vivo studies of monoclonal antibody and fusion proteins. […] Blood samples ([…]) were taken from the submandibular vein (ARC SOP 8050.02.08) 3 days before the protein treatment and the every other week during and after treatments. Blood samples were collected in Microtainer® Blood Collection Tubes, and plasma was harvested from the supernatant of blood sample after centrifugation and stored at −80° C. freezer until use.
# A positive anti-dsDNA autoantibody control was generated by pooling plasma from 5 aged MRL/lpr mice, approximately 8 months of age. The positive control plasma was aliquoted and stored at −80° C. freezer before use.
# The dsDNA solution (10 mg/mL) was first generated by dissolving salmon testes DNA in PBS at 37° C. in a water bath followed by filtration through a 0.45 μm membrane filter. The dsDNA solution was aliquoted and stored at −80° C. before use.
# On the day prior to the autoantibody ELISA, 100 μL of the dsDNA stock solution was first added to 10 mL of PBS resulting in a final concentration of 100 μg/ml. […] of the diluted dsDNA was then added to each well of Immulon 2HB 96-well flat bottom microtiter plates. Plates were placed in a humidified incubator at 37° C. without lids for overnight coating. Plates were washed 4 times with 300 μL of PBS/T [0.1% (v/v) Tween-20 (polysorbate 20) in PBS] using a microtiter plate washer (hydroFLEX, TECAN. Software: HydroControl) and then blocked with 200 μL of blocking buffer (10% fetal bovine serum in PBS) at room temperature for at least 1 h followed by 4 washes with 300 μL of PBS/T. The negative control (normal Balb/C mouse plasma, 1:2000 dilution), positive controls (1:5000, 1:10000, 1:20000 dilutions), and samples (1:2000 dilution) were diluted with blocking buffer. Next, 100 μL of each diluted control and sample was added to corresponding wells (duplicate wells) and incubated at room temperature for 2 h or at 4° C. overnight followed by 4 washes with 300 μL of PBS/T. For detection, 100 μL of anti-mouse IgG-HRP (Sigma, A9309, diluted to 1:10000 in blocking buffer) was added to each well and the plate was incubated at room temperature for 1 h followed by 4 washes with 400 μL of PBS/T.
# Later, 100 μL of room temperature, pre-warmed TMB Substrate Reagent was added to each well. When the color developed optimally (about 10 min), 100 μL of stop solution (1% sulfuric acid) was added. The plate was then read for absorbance at 450 nm (OD450) using a microtiter plate reader (SPECTRAmax, Molecular Devices. Software: SoftMax Pro5.2).
# All the blood samples were analyzed at the end of the study. The OD450 value of test samples was normalized relatively to the internal positive control at the 1:10000 dilution. The relative value rather than the absolute Ab concentration was used for comparison.
# Female MRL/lpr mice at age of 4 weeks were divided into 4 groups (FIG. 59): vehicle, CTX alone, murine B7-H4-Ig alone and CTX plus murine B7-H4-Ig combination treatment (Combo). CTX was given IP, 50 mg/kg, once every 2 weeks. Murine B7-H4-Ig was administrated IP, 100 μg (5 mg/kg), and twice every week. The Combo group received CTX injection every 2 weeks and murine B7-H4-Ig 2 times every week at 5 mg/kg. Mice were treated for 7 weeks.
# Plasma was collected from MRL/lpr mice pre-treatment (4 wk) and periodically up to 21 weeks of age.
# [1] = system: CD4^+CD62L^+ naïve T cells; assay: Mouse Th17 assay, IL-17A ELISA; format: cell-based
# Description: CD4^+CD62L^+ naïve T cells were isolated from BALB/c mice as in the above examples, and activated by anti-CD3 and anti-CD28 bound beads in the presence of Th17 differntiation cocktail (TGF-β1 (10 ng/mL), IL-6 (50 ng/mL), IL-23 (4 ng/mL), anti-IL-4 (10 μg/mL), anti-IFN-γ (5 μg/mL) and anti-IL-2 (5 μg/mL)). Murine B7-H4-Ig (10 μg/mL) or retinoic acid (RA) (10 μM) was added to the cultures on day 0, day 1, or day 2 of the 4 day culture. IL-17A levels were measured by ELISA at the end of the 4 day culture.
# The Th17 assay is 4 days in duration. In order to determine when B7-H4-Ig is acting, the Th17 assay was performed with the addition of 10 μg/mL of murine B7-H4-Ig, 10 μg/mL of mouse IgG control, or […] retinoic acid on Day 0, Day 1, or Day 2.
# Peripheral T cells were obtained from spleens and inguinal lymph nodes of 6-9 week old BALB/c mice by mechanical disruption through a cell strainer followed by red blood cell (RBC) lysis.
# Naïve helper T cells (CD4^+CD62L^+) were obtained using the Miltenyi Biotec microbead system. CD4^+ cells are enriched by negative selection, and followed by a positive selection of CD62L^+. In some experiments CD25+ cells were also depleted.
# After selection, cells are activated in vitro with anti-CD3/CD28 beads at a 1:1 cell:bead ratio in the presence of the TH17 differentiation cocktail (TGF-β1 (10 ng/ml), IL-6 (50 ng/ml), IL-23 (4 ng/ml), anti-IL-2 (5 μg/ml), anti-IL-4 (10 μg/ml), and anti-IFN-γ (5 μg/ml)). Murine B7-H4-Ig is added at a final concentration of 1.25-20 μg/ml. Retinoic acid (RA) is used as positive control and mouse IgG is used as a negative control.
# After 4 days of culture, cultures are spun down and supernatants are harvested and stored at <−65° C. until analyzed for IL-17A levels by ELISA.
# DBA/1 mice [2] = assay: Therapeutic CIA study AA#80 (male mice), disease score; format: in vivo, mouse; conditions: individual mice (Tag #)
# Description: (§1) DBA/1 mice (10 per group) aged 7-9 weeks were used for the CIA model. Mice from several vendors (Jackson Laboratories, Harlan Laboratories, and Taconic Farms) were tested and it was determined that Taconic mice are most appropriate for the CIA studies. Taconic mice develop more consistent and severe disease symptoms and show continued disease progression, while mice from the other vendors often show stable, less severe disease, even in the absence of treatment. female (F) mice in AA#79 and male (M) mice in AA#80, were tested to determine which gender to use in future experiments.
# (§2) On the day before the study is initiated, the hair on the right flank of each mouse was removed using an electric clipper. A metal identification tag was placed on the right ear of each mouse. On Day 0, mice were immunized with 100 μL of chicken collagen type II/Complete Freund's Adjuvant (CII/CFA) emulsion in the right flank. On Day 20, the hair on the left flank of each mouse was removed using an electric clipper, and on Day 21, mice were immunized with 100 μL of chicken collagen type II/Incomplete Freund's Adjuvant (CII/IFA) emulsion in the left flank. Pre-filled syringes of CII/CFA and CII/IFA emulsion purchased from Hooke Laboratories were used to ensure consistent dosing with and potency of the immunogen.
# (§3) Early arthritis symptoms, such as erythema and mild swelling, usually appear on Day 21, and on Day 28, more severe symptoms such as swelling in many digits and inflammation extending to the tarsal joint are typically present. Each limb is evaluated for severity of arthritis symptoms three times a week using a widely accepted arthritis severity score system, shown in Table 2. The scores from each of the 4 limbs are summed to yield the disease score of each mouse. […]
# (§4) Treatment was initiated when the average disease score for the study animals was greater than four. This corresponded to Day 29 in AA#79 and Day 24 in […]. By waiting until animals are symptomatic, it was ensured that the model is performed in a therapeutic rather than prophylactic mode.
# (§5) B7-H4-Ig, RPA110010, and murine B7-H4-Ig proteins were administered by intraperitoneal (IP) injection 3 times a week for a total of 8 doses. RPA110010 is an extracellular domain variant of B7-H4-Ig, SEQ ID NO:126. Control murine and human IgG proteins were given once a week for a total of 3 doses. […] All proteins were diluted to the desired concentration (500 μg in 500 μL, or 1 mg/mL) with sterile PBS immediately before injection. Vehicle control mice receive Amplimmune formulation buffer diluted 1:10 in PBS, with an injection volume of 500 μL.
# DBA/1 mice [3] = assay: Therapeutic CIA study AA#79 (female mice), disease score; format: in vivo, mouse
# Description: as §1, §2, §3, §4, §5
compound,measurement,setting,value
"O=P1(N(CCCl)CCCl)NCCCO1 (centres unmarked) [CTX, Cyclophosphamide]",dsDNA autoantibody (OD450 normalized against positive control diluted at 1:10000),MRL/lpr mice; mouse age 4 weeks (pre-treatment),0.15 and 0.46 and 0.05 and 0.09 and 0.01
same,dsDNA autoantibody (OD450 normalized against positive control diluted at 1:10000),MRL/lpr mice; mouse age 7 weeks,0.55 and 0.21 and 1.07 and 0.10 (2×)
same,dsDNA autoantibody (OD450 normalized against positive control diluted at 1:10000),MRL/lpr mice; mouse age 8 weeks,2.50 and 0.33 and 2.03 and 0.17 and 0.06
same,dsDNA autoantibody (OD450 normalized against positive control diluted at 1:10000),MRL/lpr mice; mouse age 9 weeks,3.46 and 2.09 and 2.26 and 0.79 and 0.26
same,dsDNA autoantibody (OD450 normalized against positive control diluted at 1:10000),MRL/lpr mice; mouse age 10 weeks,1.50 and 4.05 and 2.95 and 1.97 and 0.39
same,dsDNA autoantibody (OD450 normalized against positive control diluted at 1:10000),MRL/lpr mice; mouse age 11 weeks,2.97 and 4.67 and 3.75 and 2.21 and 0.55
same,dsDNA autoantibody (OD450 normalized against positive control diluted at 1:10000),MRL/lpr mice; mouse age 15 weeks,2.93 and 4.87 and 2.62 and 1.76 and 1.11
same,dsDNA autoantibody (OD450 normalized against positive control diluted at 1:10000),MRL/lpr mice; mouse age 19 weeks,2.61 and 11.76 and 3.05 and 2.58 and 1.26
"CC1=C(/C=C/C(C)=C/C=C/C(C)=C/C(=O)O)C(C)(C)CCC1 [RA, All trans-Retinoic Acid]","IL-17A expression (ELISA, day 4)","[1]; Th17 promoting conditions, relative to control mouse IgG (FIG. 56)",reduced IL-17A expression
same,IL-17A inhibition by time of addition,"[1]; murine B7-H4-Ig 10 μg/mL or RA 10 μM (b737 prints 10 mM) added day 0, day 1 or day 2 of 4 day culture (FIG. 53)",inhibited IL-17A most potently when added at the beginning of the assay (day 0)
Syngis,AA#80 CIA disease scores,DBA/1 mice [2]; Study Day 20,4 (3×) and 1 and 2 (2×) and 5 and 3 and 6
same,AA#80 CIA disease scores,DBA/1 mice [2]; Study Day 22,5 (4×) and 2 (2×) and 4 (2×) and 8
same,AA#80 CIA disease scores,DBA/1 mice [2]; Study Day 24,5 (4×) and 6 (3×) and 3 and 8
same,AA#80 CIA disease scores,DBA/1 mice [2]; Study Day 27,6 (4×) and 4 (2×) and 5 and 7 and 8
same,AA#80 CIA disease scores,DBA/1 mice [2]; Study Day 29,6 (2×) and 5 (4×) and 4 and 7 and 11
same,AA#80 CIA disease scores,DBA/1 mice [2]; Study Day 31,8 (3×) and 5 and 6 (3×) and 3 and 11
same,AA#80 CIA disease scores,DBA/1 mice [2]; Study Day 34,10 and 7 (2×) and 8 (4×) and 6 and 11
same,AA#80 CIA disease scores,DBA/1 mice [2]; Study Day 36,10 and 8 (5×) and 7 and 11 and 13
same,AA#80 CIA disease scores,DBA/1 mice [2]; Study Day 38,11 (2×) and 6 (2×) and 8 and 7 (2×) and 10 (2×) and 12
same,AA#80 CIA disease scores,DBA/1 mice [2]; Study Day 41,12 and 13 (2×) and 7 and 8 and 9 and 10 (2×) and 14
same,AA#80 CIA disease scores,DBA/1 mice [2]; Study Day 44,10 and 14 and 7 (3×) and 8 and 11 and 12 and 13
same,CIA disease score,"DBA/1 mice [3]; AA#79, Study Day 12, individual mouse (Tag#)",0 (2×) and 1 (3×) and 2
same,CIA disease score,"DBA/1 mice [3]; AA#79, Study Day 18, individual mouse (Tag#)",2 (4×) and 1 (2×)
same,CIA disease score,"DBA/1 mice [3]; AA#79, Study Day 22, individual mouse (Tag#)",4 and 2 (4×) and 3
same,CIA disease score,"DBA/1 mice [3]; AA#79, Study Day 25, individual mouse (Tag#)",2 (4×) and 5 and 3
same,CIA disease score,"DBA/1 mice [3]; AA#79, Study Day 27, individual mouse (Tag#)",5 (2×) and 7 and 4 (2×) and 6
same,CIA disease score,"DBA/1 mice [3]; AA#79, Study Day 29, individual mouse (Tag#)",6 (3×) and 5 and 4 and 10
same,CIA disease score,"DBA/1 mice [3]; AA#79, Study Day 32, individual mouse (Tag#)",10 and 9 (2×) and 7 and 8
same,CIA disease score,"DBA/1 mice [3]; AA#79, Study Day 34, individual mouse (Tag#)",10 (2×) and 9 (2×) and 6
same,CIA disease score,"DBA/1 mice [3]; AA#79, Study Day 36, individual mouse (Tag#)",11 (2×) and 9 (2×) and 10 and 8
same,CIA disease score,"DBA/1 mice [3]; AA#79, Study Day 39, individual mouse (Tag#)",11 (2×) and 8 and 6 and 9 and 12
same,CIA disease score,"DBA/1 mice [3]; AA#79, Study Day 41, individual mouse (Tag#)",12 and 10 (2×) and 13 and 6 and 11
same,CIA disease score,"DBA/1 mice [3]; AA#79, Study Day 43, individual mouse (Tag#)",12 (2×) and 11 (2×) and 6 and 10
same,CIA disease score,"DBA/1 mice [3]; AA#79, Study Day 46, individual mouse (Tag#)",14 (2×) and 11 and 12 and 6 and 10
same,CIA disease score,"DBA/1 mice [3]; AA#79, Study Day 48, individual mouse (Tag#)",13 (3×) and 11 and 5 and 12
same,CIA disease score,"DBA/1 mice [3]; AA#79, Study Day 50, individual mouse (Tag#)",11 (2×) and 12 (3×) and 9
same,CIA disease score,"DBA/1 mice [3]; AA#79, Study Day 54, individual mouse (Tag#)",13 (2×) and 12 (3×) and 8
same,CIA disease score,"DBA/1 mice [3]; AA#79, Study Day 57, individual mouse (Tag#)",13 (2×) and 14 and 7 and 12 and 15
